In general, mass density refers to mass per unit of volume.

Each structure is given as a SMILES string. Numbers after ± are expanded uncertainties.

Mass density data for two molecules are collected here from the NIST ThermoML archive (doi:10.1016/j.jct.2011.05.036).

A short description of the series: mn = molality of the nth substance listed, in mol/kg. As to conditions: 298.15 K, 101 kPa, Liquid, Vibrating tube method.

As to `O=S(=O)(O)CC(O)CN1CCOCC1` (stereo not given) [3-morpholino-2-hydroxypropanesulfonic acid] + O, the mass density by setting is: (m1 = 0.1262) 1006.93 ± 0.14 kg/m3; (m1 = 0.2647) 1017.35 ± 0.14 kg/m3; (m1 = 0.6529) 1044.51 ± 0.14 kg/m3; (m1 = 1.012) 1067.2 ± 0.14 kg/m3; (m1 = 1.477) 1093.32 ± 0.15 kg/m3; (m1 = 2.03) 1120.89 ± 0.16 kg/m3. Also, the mass density (m1 = 2.537) was found to be 1142.98 ± 0.17 kg/m3, the mass density (m1 = 3.196) is given as 1168.39 ± 0.19 kg/m3 and the mass density (m1 = 3.75) amounted to 1187 ± 0.2 kg/m3.

As for `O=S(=O)(O)CCCN1CCOCC1` [4-morpholinepropanesulfonic acid] + O, the mass density worked out at 998.4 ± 0.13 kg/m3 (m1 = 0.0212); 1000.76 ± 0.13 kg/m3 (m1 = 0.0584); 1003.44 ± 0.13 kg/m3 (m1 = 0.1012); 1011.89 ± 0.13 kg/m3 (m1 = 0.2396); 1037.46 ± 0.13 kg/m3 (m1 = 0.6942); 1064.7 ± 0.13 kg/m3 (m1 = 1.248). The mass density reads like this: (m1 = 2.273) 1106.41 ± 0.14 kg/m3; (m1 = 3.243) 1138.03 ± 0.15 kg/m3; (m1 = 4.387) 1168.14 ± 0.16 kg/m3; (m1 = 5.781) 1195.72 ± 0.17 kg/m3; (m1 = 7.087) 1217.61 ± 0.18 kg/m3.
